Measured values taken from patent US9289417B2, “Compounds and methods for the modulation of sulfilimine bond formation” (VANDERBILT UNIVERSITY, priority 2009, dated 2016).
“Also recorded” adds a separate entry of the source.

Assays:
[1] = test system: type IV collagen NC1 domain sulfilimine crosslink formation; experiment: Type IV collagen NC1 domain sulfilimine crosslink (dimer) formation in matrix of cultured PF HR9 cells, western blot; assay type: cell-based, mouse; conditions: for effect on NC1 domain sulfilimine crosslink (dimer) formation, in words: increasing concentrations, PF HR9 cell culture matrix, western blot; for inhibition of NC1 dimer (D) formation: PF HR9 mouse endodermal cell matrix, anti-α2 chain western blot
Method: FIG. 9. Methimazole and Phloroglucinol inhibit type IV collagen NC1 domain sulfilimine crosslink formation. NC1 domains were prepared from collagenase digests of extracellular matrix derived from cultured PF HR9 mouse endodermal cells and detected by western blotting with an anti-α2 chain monoclonal antibody.
Standard drug discovery strategies may identify other agents that specifically target the sulfilimine cross-link system with minimal inhibition of other peroxidase systems. In addition, a monoclonal antibody can be generated to inhibit enzyme activity. These agents represent anti-angiogenic oncologic agents that can be translated to clinical medicine with broad application.

human peroxidasin (PXDN) = molecular target: T1, human peroxidasin (PXDN) (Homo sapiens, UniProt Q92626); experiment: NC1 domain dimerization by HEK293 cells stably transfected with human peroxidasin plated on monomeric PFHR9 matrix; assay type: cell-based; conditions: concentration not given
T1 construct: expressed in transfected cells; host or cells: HEK293 (stably transfected)
T1 sequence (Q92626 27-1479): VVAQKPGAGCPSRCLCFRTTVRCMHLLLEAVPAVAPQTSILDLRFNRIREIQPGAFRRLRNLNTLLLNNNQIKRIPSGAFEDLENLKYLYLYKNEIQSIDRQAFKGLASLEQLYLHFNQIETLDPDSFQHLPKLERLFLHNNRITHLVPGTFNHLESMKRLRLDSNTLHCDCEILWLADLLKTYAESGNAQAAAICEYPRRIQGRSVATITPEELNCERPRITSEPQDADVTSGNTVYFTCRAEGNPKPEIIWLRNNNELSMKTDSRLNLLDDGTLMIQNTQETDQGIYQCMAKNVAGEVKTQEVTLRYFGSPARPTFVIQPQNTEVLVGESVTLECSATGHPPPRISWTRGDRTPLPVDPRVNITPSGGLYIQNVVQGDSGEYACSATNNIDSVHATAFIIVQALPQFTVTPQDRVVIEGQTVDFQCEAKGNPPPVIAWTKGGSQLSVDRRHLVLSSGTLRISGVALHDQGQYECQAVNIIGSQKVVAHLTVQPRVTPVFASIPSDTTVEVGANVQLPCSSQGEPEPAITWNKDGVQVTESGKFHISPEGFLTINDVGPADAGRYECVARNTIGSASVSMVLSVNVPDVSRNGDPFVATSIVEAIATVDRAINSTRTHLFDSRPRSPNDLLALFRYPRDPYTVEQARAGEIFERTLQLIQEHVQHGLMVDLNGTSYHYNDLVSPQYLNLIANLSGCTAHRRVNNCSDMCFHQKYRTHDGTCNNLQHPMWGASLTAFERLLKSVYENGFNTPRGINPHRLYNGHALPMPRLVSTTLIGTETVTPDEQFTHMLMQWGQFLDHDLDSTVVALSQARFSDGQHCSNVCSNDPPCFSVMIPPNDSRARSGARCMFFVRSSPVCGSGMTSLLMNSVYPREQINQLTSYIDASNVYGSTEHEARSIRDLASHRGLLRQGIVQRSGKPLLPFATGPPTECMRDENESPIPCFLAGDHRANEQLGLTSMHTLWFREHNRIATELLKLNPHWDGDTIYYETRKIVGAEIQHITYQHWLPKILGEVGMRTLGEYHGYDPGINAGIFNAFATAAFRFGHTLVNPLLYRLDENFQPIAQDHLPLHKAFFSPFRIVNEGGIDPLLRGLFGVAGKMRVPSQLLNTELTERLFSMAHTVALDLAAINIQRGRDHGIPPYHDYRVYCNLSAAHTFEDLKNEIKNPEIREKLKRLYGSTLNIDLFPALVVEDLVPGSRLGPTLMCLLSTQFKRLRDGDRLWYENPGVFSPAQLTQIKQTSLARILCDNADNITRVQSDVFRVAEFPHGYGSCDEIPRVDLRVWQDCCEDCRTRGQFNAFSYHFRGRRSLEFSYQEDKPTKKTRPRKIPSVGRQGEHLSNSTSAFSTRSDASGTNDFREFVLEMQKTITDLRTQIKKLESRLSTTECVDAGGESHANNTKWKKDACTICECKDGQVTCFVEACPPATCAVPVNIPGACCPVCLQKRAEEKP
Excerpt: FIG. 11. PXDN mediates NC1 domain dimerization. HEK293 stably transfected with human peroxidasin (PXDN) plated on top of monomeric PFHR9 matrix leads to NC1 domain dimerization (middle lanes). […] Placental basement membrane (PBM) NC1 domain is shown for comparison.
Based on these findings, they pursued peroxidasin, a known matrix peroxidase, as a possible candidate for collagen IV dimer and presumably sulfilimine bond formation. […] Peroxidasin was also identified as an endogenous component of the extracellular matrix produced by the HR-9 cells with the use of mass spectrometry.

Cn1cc[nH]c1=S [Methimazole, methimazole]
effect on NC1 domain sulfilimine crosslink (dimer) formation, in words [1]: decreases crosslinked NC1 dimer (D) while increasing non-crosslinked monomer (M) | effect on NC1 domain sulfilimine crosslink (dimer) formation, in words ([1]; listed as methimazole): inhibit cross-link formation

Oc1cc(O)cc(O)c1 [Phloroglucinol, phloroglucinol]
inhibition of NC1 dimer (D) formation ([1]; Phloroglucinol at 5 uM): near complete inhibition | inhibition of NC1 dimer (D) formation ([1]; Phloroglucinol at 50 uM): complete inhibition | effect on NC1 domain sulfilimine crosslink (dimer) formation, in words [1]: inhibits dimer (D) formation more potently | effect on NC1 domain sulfilimine crosslink (dimer) formation, in words ([1]; listed as phloroglucinol): inhibit cross-link formation | NC1 domain dimerization by PXDN transfected HEK293 cells in the presence of inhibitor (human peroxidasin (PXDN)): No dimer formation was observed; also recorded: fail to lead to dimerization
